The supplement of paper PMC10307832

Legend:
Test in all cases: relative viability (nuclei count vs DMSO), 5 days (fraction); higher = more cells survive
[1] = compound: CN1CCN(c2ccc3nc(-c4c(N)c5c(F)cccc5[nH]c4=O)[nH]c3c2)CC1 [Dovitinib] + Cc1cc(Nc2cc(N3CCN(C)CC3)nc(Sc3ccc(NC(=O)C4CC4)cc3)n2)n[nH]1 [Tozasertib] (partner 0.1 µM)
Summary of the method: (§1)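 Medians of duplicate plates are given as relative viability. That measure is the nuclei count in treated wells divided by the count in vehicle wells. Counts were taken on 4× images of lung cancer cell lines in 1536-well plates, 5 days after pin-tool dosing the day after seeding with one drug alone or a fixed anchor-drug dose plus five library-drug doses (not always all listed) in √10 steps.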

[2] = compound: CN1CCN(c2ccc3nc(-c4c(N)c5c(F)cccc5[nH]c4=O)[nH]c3c2)CC1 [Dovitinib] + Cc1nc(Nc2ncc(C(=O)Nc3c(C)cccc3Cl)s2)cc(N2CCN(CCO)CC2)n1 [Dasatinib] (partner 0.075 µM)
Summary of the method: as §1

[3] = compound: CN1CCN(c2ccc3nc(-c4c(N)c5c(F)cccc5[nH]c4=O)[nH]c3c2)CC1 [Dovitinib] + CCNC(=O)c1noc(-c2cc(C(C)C)c(O)cc2O)c1-c1ccc(CN2CCOCC2)cc1 [Luminespib] (partner 0.01 µM)
Summary of the method: as §1

[4] = compound: CN1CCN(c2ccc3nc(-c4c(N)c5c(F)cccc5[nH]c4=O)[nH]c3c2)CC1 [Dovitinib] + Cc1nc(NC(=O)N2CCC[C@H]2C(N)=O)sc1-c1ccnc(C(C)(C)C(F)(F)F)c1 [Alpelisib] (partner 2 µM)
Summary of the method: as §1

Cell Line	relative viability ([1]; first compound 0.02 µM)	relative viability ([1]; first compound 0.06325 µM)	relative viability ([1]; first compound 0.2 µM)	relative viability ([1]; first compound 0.6325 µM)	relative viability ([1]; first compound 2 µM)	relative viability ([2]; first compound 0.02 µM)	relative viability ([2]; first compound 0.06325 µM)	relative viability ([2]; first compound 0.2 µM)	relative viability ([2]; first compound 0.6325 µM)	relative viability ([2]; first compound 2 µM)	relative viability ([3]; first compound 0.02 µM)	relative viability ([3]; first compound 0.06325 µM)	relative viability ([3]; first compound 0.2 µM)	relative viability ([3]; first compound 0.6325 µM)	relative viability ([3]; first compound 2 µM)	relative viability ([4]; first compound 0.02 µM)	relative viability ([4]; first compound 0.06325 µM)	relative viability ([4]; first compound 0.2 µM)	relative viability ([4]; first compound 0.6325 µM)	relative viability ([4]; first compound 2 µM)
NCI-H358	0.104	0.101	0.115	0.11	0.106	0.154	0.177	0.176	0.184	0.179	0.31	0.306	0.428	0.813	0.306	0.941	0.905	0.849	0.84	0.804
NCI-H441	0.668	0.599	0.559	0.626	0.575	0.708	0.556	0.675	0.568	0.63	0.351	0.382	0.286	0.32	0.342	0.787	0.902	0.909	0.548	0.566
NCI-H460	0.495	0.472	0.421	0.418	0.461	0.407	0.489	0.555	0.505	0.476	0.0302	0.034	0.0441	0.0303	0.0426	0.421	0.562	0.524	0.395	0.426
NCI-H520	0.453	0.486	0.409	0.431	0.427	0.165	0.188	0.235	0.179	0.218	0.218	0.219	0.192	0.201	0.212	0.794	0.988	0.935	0.86	0.769
NCI-H596	0.985	0.982	0.963	0.838	0.754	0.646	0.523	0.552	0.647	0.534	1.12	1.11	0.942	1.16	0.835	0.462	0.542	0.563	0.499	0.457
NCI-H647	0.297	0.317	0.452	0.279	0.315	0.151	0.152	0.209	0.171	0.21	0.16	0.192	0.127	0.183	0.179	0.966	1.15	1.34	1.19	0.961
NCI-H650	0.713	0.689	0.725	0.824	0.854	0.48	0.383	0.49	0.5	0.432	0.798	0.667	0.808	0.744	0.788	1.13	0.972	1.07	0.997	1.2
NCI-H661	0.347	0.355	0.36	0.361	0.38	0.85	0.829	1.01	0.984	0.936	0.87	0.93	0.924	0.936	0.975	0.706	0.661	0.885	0.898	0.573
NCI-H727	0.573	0.658	0.588	0.691	0.761	0.482	0.393	0.422	0.395	0.385	0.272	0.373	0.285	0.322	0.373	0.673	0.642	0.476	0.48	0.47
NCI-H838	0.236	0.263	0.282	0.295	0.252	0.293	0.269	0.31	0.273	0.288	0.277	0.307	0.349	0.25	0.289	0.949	1.04	1.01	0.936	0.938
NCI-H1355	0.567	0.566	0.618	0.54	0.596	0.678	0.673	0.723	0.744	0.771	0.716	0.781	0.829	0.827	0.68	0.797	0.796	0.864	0.764	0.82
NCI-H1395	0.721	0.75	0.81	0.765	0.815	0.448	0.423	0.437	0.402	0.425	0.703	0.661	0.757	0.629	0.665	1.07	0.988	1.11	1.09	1.12
NCI-H1437	0.418	0.392	0.435	0.392	0.419	0.414	0.397	0.353	0.39	0.452	1.07	1.12	1.13	0.985	1.07	0.952	0.981	0.909	0.904	0.966
NCI-H1651	0.61	0.65	0.691	0.682	0.733	0.388	0.43	0.484	0.469	0.486	0.901	0.902	0.996	0.752	0.683	0.816	1.06	0.867	0.898	0.862
NCI-H1666	0.582	0.651	0.581	0.525	0.625	0.767	0.839	0.845	0.799	0.762	1.02	0.991	1.07	0.997	0.972	1.01	0.933	1.02	0.883	1.07
NCI-H1734	0.287	0.279	0.264	0.223	0.288	0.431	0.501	0.436	0.439	0.452	0.177	0.231	0.185	0.182	0.198	0.711	0.697	0.675	0.626	0.641

Cell Line	relative viability ([1]; first compound 0.02 µM)	relative viability ([1]; first compound 0.06325 µM)	relative viability ([1]; first compound 0.2 µM)	relative viability ([1]; first compound 0.6325 µM)	relative viability ([1]; first compound 2 µM)	relative viability ([2]; first compound 0.02 µM)	relative viability ([2]; first compound 0.06325 µM)	relative viability ([2]; first compound 0.2 µM)	relative viability ([2]; first compound 0.6325 µM)	relative viability ([2]; first compound 2 µM)	relative viability ([3]; first compound 0.02 µM)	relative viability ([3]; first compound 0.06325 µM)	relative viability ([3]; first compound 0.2 µM)	relative viability ([3]; first compound 0.6325 µM)	relative viability ([3]; first compound 2 µM)	relative viability ([4]; first compound 0.02 µM)	relative viability ([4]; first compound 0.06325 µM)	relative viability ([4]; first compound 0.2 µM)	relative viability ([4]; first compound 0.6325 µM)	relative viability ([4]; first compound 2 µM)
NCI-H1755	0.53	0.62	0.554	0.561	0.555	0.446	0.388	0.45	0.393	0.443	0.41	0.305	0.417	0.54	0.508	0.951	0.916	0.923	0.903	0.878
NCI-H1793	0.32	0.399	0.362	0.266	0.343	0.458	0.364	0.367	0.385	0.503	0.199	0.164	0.165	0.211	0.167	0.928	0.601	0.88	0.831	0.623
NCI-H1915	0.435	0.445	0.46	0.451	0.453	0.317	0.308	0.313	0.278	0.353	0.717	0.897	0.884	0.775	0.781	0.992	1.04	1.06	0.983	1.04
NCI-H1944	0.235	0.258	0.225	0.272	0.255	0.214	0.21	0.208	0.212	0.228	0.643	0.773	0.757	0.704	0.715	0.822	0.846	0.809	0.777	0.858
NCI-H1975	0.72	0.754	0.763	0.689	0.685	0.346	0.348	0.408	0.364	0.453	0.991	0.19	0.422	0.146	0.217	0.625	0.685	0.603	0.604	0.547
NCI-H1993	0.58	0.546	0.601	0.636	0.582	0.748	0.634	0.599	0.684	0.261	0.873	0.716	0.816	0.728	0.346	0.599	0.683	0.642	0.71	0.734
NCI-H2009	0.698	0.761	0.782	0.683	0.886	0.261	0.269	0.336	0.299	0.354	0.974	1.11	0.981	0.973	1.13	1.07	1.16	1.06	1.14	1.14
NCI-H2023	0.324	0.334	0.384	0.261	0.313	0.56	0.565	0.612	0.578	0.58	0.853	0.627	0.809	0.897	0.833	0.558	0.574	0.606	0.57	0.523
NCI-H2085	0.83	0.871	0.851	0.824	0.84	0.234	0.261	0.235	0.248	0.319	0.41	0.457	0.485	0.495	0.484	1.05	0.987	0.88	0.936	1.03
NCI-H2087	0.196	0.271	0.308	0.209	0.286	0.836	0.847	0.869	0.889	0.98	0.148	0.155	0.184	0.212	0.137	1.35	1.31	1.02	0.989	1.01
NCI-H2126	0.833	0.807	0.951	0.794	0.833	0.599	0.596	0.766	0.622	0.623	0.937	0.864	1.09	0.877	0.83	0.761	0.72	0.716	0.769	0.695
NCI-H2170	0.658	0.856	0.733	0.787	0.787	0.552	0.566	0.608	0.599	0.552	0.892	0.79	0.857	0.538	0.652	0.672	0.807	0.889	0.77	0.83
NCI-H2228	0.249	0.281	0.207	0.216	0.265	0.549	0.624	0.495	0.435	0.588	0.104	0.151	0.161	0.141	0.172	0.997	0.674	0.61	0.837	0.565
NCI-H2347	0.523	0.478	0.503	0.619	0.62	0.317	0.276	0.322	0.303	0.33	0.426	0.442	0.661	0.357	0.255	1.11	0.988	1.08	1.09	1.09
NCI-H2405	0.732	0.722	0.782	0.705	0.883	0.201	0.222	0.174	0.204	0.235	0.657	0.579	0.7	0.58	0.817	0.819	0.744	0.791	0.77	0.965
NCI-H3122	0.37	0.368	0.488	0.406	0.415	0.721	0.857	0.914	0.832	0.749	0.0862	0.096	0.092	0.0979	0.112	0.703	0.681	0.8	0.82	0.839
